Test results taken from ChEMBL document CHEMBL4421722, “Inhibitors of protein prenyltransferases” (2013).
pIC50: −log10 of the molar value.

Columns and labels:
Capan-2 = assay: Antiproliferative activity against human Capan2 cells assessed as inhibition of cell proliferation incubated for 72 hrs by CCK8 assay; type: functional, cell-based; details: Capan-2, 72 h
Jurkat = assay: Antiproliferative activity against human Jurkat cells assessed as inhibition of cell proliferation incubated for 72 hrs by CCK8 assay; type: functional, cell-based
CFPAC-1 = assay: Antiproliferative activity against human CFPAC-1 cells assessed as inhibition of cell proliferation incubated for 72 hrs by CCK8 assay; type: functional, cell-based; details: CFPAC-1, 72 h
K562 = assay: Antiproliferative activity against human K562 cells assessed as inhibition of cell proliferation incubated for 72 hrs by CCK8 assay; type: functional, cell-based; details: K562, 72 h
MIA PaCa-2 = assay: Antiproliferative activity against human MIAPaCa2 cells assessed as inhibition of cell proliferation incubated for 72 hrs by CCK8 assay; type: functional, cell-based; details: MIA PaCa-2, 72 h
MDA-MB-231 = assay: Antiproliferative activity against human MDA-MB-231 cells assessed as inhibition of cell proliferation incubated for 72 hrs by CCK8 assay; type: functional; details: MDA-MB-231, 72 h
[1] = Inhibition of rat recombinant geranylgeranyltransferase type I expressed in Escherichia coli assessed as reduction in geranylgeranylation of RhoA incubated for 30 mins in presence of [3H]GGPP by scintillation counting assay relative to control
PANC-1 = assay: Antiproliferative activity against human PANC1 cells assessed as inhibition of cell proliferation incubated for 72 hrs by CCK8 assay; type: functional, cell-based; details: PANC-1, 72 h
BT-474 = assay: Antiproliferative activity against human BT474 cells assessed as inhibition of cell proliferation incubated for 72 hrs by CCK8 assay; type: functional, cell-based; details: BT-474, 72 h
ASPC1 = assay: Antiproliferative activity against human AsPC1 cells assessed as inhibition of cell proliferation incubated for 6 days by CCK8 assay; type: functional, cell-based; details: ASPC1, 144 h
[2] = Inhibition of rat recombinant geranylgeranyltransferase type I expressed in Escherichia coli assessed as reduction in geranylgeranylation of K-Ras4B incubated for 30 mins in presence of [3H]GGPP by scintillation counting assay
[3] = molecular target: T1, Geranylgeranyl transferase type-2 (Homo sapiens, UniProt P53611+Q92696); assay: Inhibition of RabGGTase (unknown origin) using YPTI as substrate protein and [3H]geranylgeranyl pyrophosphate incubated for 20 mins by scintillation counting assay; type: protein-complex assay
T1 sequence (P53611 whole entry): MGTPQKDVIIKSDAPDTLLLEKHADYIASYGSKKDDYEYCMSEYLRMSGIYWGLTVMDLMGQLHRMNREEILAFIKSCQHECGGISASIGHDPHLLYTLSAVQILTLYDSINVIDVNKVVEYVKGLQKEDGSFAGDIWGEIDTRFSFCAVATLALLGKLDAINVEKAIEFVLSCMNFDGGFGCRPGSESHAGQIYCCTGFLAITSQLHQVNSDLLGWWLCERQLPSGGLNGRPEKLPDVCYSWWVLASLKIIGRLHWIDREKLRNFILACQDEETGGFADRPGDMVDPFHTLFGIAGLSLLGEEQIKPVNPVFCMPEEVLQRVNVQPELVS
T1 sequence (Q92696 whole entry): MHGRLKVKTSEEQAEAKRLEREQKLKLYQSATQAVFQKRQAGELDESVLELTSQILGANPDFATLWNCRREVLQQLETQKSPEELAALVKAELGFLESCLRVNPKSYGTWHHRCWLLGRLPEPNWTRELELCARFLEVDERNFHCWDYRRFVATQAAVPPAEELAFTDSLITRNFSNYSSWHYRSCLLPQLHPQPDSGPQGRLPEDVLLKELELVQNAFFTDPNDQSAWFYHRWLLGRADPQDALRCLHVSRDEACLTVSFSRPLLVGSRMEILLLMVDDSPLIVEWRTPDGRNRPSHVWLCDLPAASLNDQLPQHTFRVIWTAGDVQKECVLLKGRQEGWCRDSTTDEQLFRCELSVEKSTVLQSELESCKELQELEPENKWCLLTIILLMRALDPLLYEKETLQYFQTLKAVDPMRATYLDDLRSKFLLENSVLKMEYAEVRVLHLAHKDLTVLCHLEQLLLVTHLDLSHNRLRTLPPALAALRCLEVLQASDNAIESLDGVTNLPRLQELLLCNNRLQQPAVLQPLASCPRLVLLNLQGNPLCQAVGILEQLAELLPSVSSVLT

[4] = molecular target: Protein farnesyltransferase (Rattus norvegicus, UniProt Q02293+Q04631); assay: Inhibition of rat recombinant FTase alpha/beta expressed in Escherichia coli using K-Ras4B as a substrate as and [3H]farnesyl pyrophosphate incubated for 30 mins by scintillation counting assay
Rattus norvegicus [5] = species on record: Rattus norvegicus; assay: Inhibition of rat recombinant geranylgeranyltransferase type I expressed in Escherichia coli assessed as residual enzyme activity for geranylgeranylation of RhoA at 50 uM incubated for 30 mins in presence of [3H]GGPP by scintillation counting assay relative to control
Rattus norvegicus [6] = species on record: Rattus norvegicus; assay: Inhibition of rat recombinant geranylgeranyltransferase type I expressed in Escherichia coli assessed as residual enzyme activity for geranylgeranylation of K-Ras4B at 50 uM incubated for 30 mins in presence of [3H]GGPP by scintillation counting assay relative to control
[7] = Antiproliferative activity against human MCF10A cells assessed as inhibition of cell proliferation incubated for 72 hrs by CCK8 assay; type: cell-based, MCF-10A
MCF7 = assay: Antiproliferative activity against human MCF7 cells assessed as inhibition of cell proliferation incubated for 6 days by CCK8 assay; type: functional, cell-based; details: MCF7, 144 h

Row | Compound | pIC50 [1] | pIC50 [2] | pIC50 [3] | pIC50 [4] | further results
1 | CC(C)(C)[C@@H]1C=C(C(=O)N[C@@H](Cc2ccccc2)C(N)=O)[C@H](c2ccc(Br)cc2)N1S(=O)(=O)c1ccccc1Cl | 4.80 to 5.22 | – | – | – | GI50 (Capan-2): 8.32 to 10.7 µM; GI50 (Jurkat): 4.74 to 8.75 µM; GI50 (CFPAC-1): 6.16 to 6.3 µM; GI50 (K562): 5.21 to 9.18 µM; GI50 (MIA PaCa-2): 6.15 to 12.1 µM; GI50 (MDA-MB-231): 4.43 to 11.3 µM; GI50 (PANC-1): 9.05 to 12 µM; GI50 (BT-474): 9.08 to 9.9 µM; GI50 (ASPC1): 12.2 to 16.8 µM
2 | CC(C)(C)[C@@H]1C=C(C(=O)O)[C@H](c2ccccc2)N1S(C)(=O)=O | 4.64 | 4.82 | – | – | –
3 | CCCCCCS[C@H]1[C@@H](C(=O)O)[C@H](c2ccc(Br)cc2)N(S(=O)(=O)c2ccc(C)cc2)[C@@H]1CC | < 4.30 | – | 5.32 | < 4.00 | –
4 | CCCCC[C@@H]1[C@@H](Sc2ccc(C)cc2)[C@H](C(=O)O)[C@H](c2ccc(C)cc2)N1S(=O)(=O)c1ccc(C)cc1 | 4.00 | 4.19 | – | – | –
5 | CCCCCCS[C@H]1[C@@H](C(=O)O)[C@H](c2ccc(Br)cc2)N(S(=O)(=O)c2ccc(C)cc2)[C@@H]1CCCCCC | < 4.30 | – | 5.66 | < 4.00 | –
6 | Cc1ccc(S(=O)(=O)N2[C@@H](c3cccc(F)c3)C(C(=O)O)=C[C@H]2C(C)(C)C)cc1 | 4.64 | 4.74 | – | – | Activity (Rattus norvegicus [5]): 9.1%; Activity (Rattus norvegicus [6]): 23.7%
7 | CCCCCS[C@H]1[C@@H](C(=O)O)[C@H](c2ccc(Br)cc2)N(S(=O)(=O)c2ccc(C)cc2)[C@@H]1CCC | < 4.30 | – | 5.44 | < 4.00 | –
8 | CCCCCCS[C@H]1[C@@H](C(=O)O)[C@H](c2ccc(Cl)c(Cl)c2)N(S(=O)(=O)c2ccc(C)cc2)[C@@H]1CCC | 5.29 | – | 5.15 | < 4.00 | –
9 | Cc1ccc(S(=O)(=O)N2[C@H](C)C=C(C(=O)O)[C@@H]2c2cccc(Cl)c2)cc1 | 4.52 | 4.70 | – | – | –
10 | CCC[C@@H]1[C@@H](Sc2ccc(OC)cc2)[C@@H](C(=O)O)[C@H](c2ccc(Br)cc2)N1S(=O)(=O)c1ccc(C)cc1 | < 4.30 | – | 5.35 | < 4.00 | –
11 | CC[C@@H]1C=C(C(=O)O)[C@H](c2ccc(F)cc2)N1S(=O)(=O)c1ccc(C)cc1 | 3.70 | 3.60 | – | – | –
12 | CC(C)C[C@H](NC(=O)C1=CC[C@@H](c2cccc(Br)c2)N(S(=O)(=O)c2ccc(Cl)cc2)[C@H]1c1cccc(Cl)c1)C(N)=O | – | – | – | – | GI50 at 72 h [7]: 14.2 µM; GI50 (K562): 7.06 µM; GI50 (MCF7): 3.43 µM
13 | Cc1ccc(S(=O)(=O)N2[C@@H](c3ccc(Cl)c(Cl)c3)C(C(=O)O)=C[C@H]2C(C)(C)C)cc1 | 4.40 | 4.48 | – | – | –
14 | CC(C)(C)OC(=O)CCS[C@H]1[C@@H](C(=O)O)[C@H](c2ccc(Cl)cc2)N(S(=O)(=O)c2ccccc2)[C@@H]1CC1CCCC1 | 5.62 | – | 5.15 | < 4.00 | Activity (Rattus norvegicus [5]): 9.7%; Activity (Rattus norvegicus [6]): 30.4%
15 | Cc1ccccc1S(=O)(=O)N1[C@@H](c2ccc(Cl)cc2)C(C(=O)N[C@@H](Cc2ccccc2)C(=O)O)=C[C@H]1C(C)(C)C | – | – | – | – | GI50 (Capan-2): 11.5 µM; GI50 (CFPAC-1): 6.38 µM; GI50 (MIA PaCa-2): 7.48 µM; GI50 (ASPC1): 12.4 µM
16 | Cc1ccc(S(=O)(=O)N2[C@H](C)C=C(C(=O)O)[C@@H]2c2ccc(Cl)c(Cl)c2)cc1 | 4.35 | 4.42 | – | – | –
17 | Cc1ccc(S(=O)(=O)N2[C@H](CC3CCCC3)[C@@H](SCCC(=O)OC(C)(C)C)[C@@H](C(=O)O)[C@@H]2c2cccc(Cl)c2)cc1 | 5.06 | – | 5.33 | < 4.00 | Activity (Rattus norvegicus [5]): 5.6%; Activity (Rattus norvegicus [6]): 20.6%
18 | Cc1ccccc1S(=O)(=O)N1[C@@H](c2cccc(Cl)c2)C(C(=O)N[C@@H](CC(C)C)C(N)=O)=CC[C@H]1c1ccc(Cl)cc1 | < 4.30 | – | – | – | GI50 (Capan-2): 14 µM; GI50 (Jurkat): 6.1 µM; GI50 at 72 h [7]: > 20 µM; GI50 (CFPAC-1): 13.7 µM; GI50 (K562): 6.15 µM; GI50 (MIA PaCa-2): 12 µM; GI50 (MCF7): 10.9 µM
19 | CC(C)(C)[C@@H]1C=C(C(=O)O)[C@H](c2ccc(Cl)cc2)N1S(C)(=O)=O | < 4.30 | 4.35 | – | – | –
20 | Cc1ccccc1S(=O)(=O)N1[C@@H](c2ccc(Cl)cc2)C(C(=O)N[C@@H](Cc2ccccc2)C(N)=O)=C[C@H]1C(C)CC(C)(C)C (some centres undefined) | 4.30 to 5.00 | – | – | – | GI50 (Capan-2): 7.5 to 10.5 µM; GI50 (Jurkat): 6.4 to 9.76 µM; GI50 at 72 h [7]: 9.16 to 11.3 µM; GI50 (K562): 5.95 to 6.3 µM; GI50 (MIA PaCa-2): 6.7 to 7.17 µM; GI50 (MCF7): 3.1 to 4.71 µM; GI50 (PANC-1): 8.6 to 8.85 µM; GI50 (BT-474): 10.1 to 10.8 µM; GI50 (ASPC1): 8.61 to 11.4 µM
21 | Cc1ccc(S(=O)(=O)N2[C@@H](c3ccccc3)C(C(=O)O)=CC[C@H]2c2ccc(F)cc2)cc1 | 3.92 | 4.10 | – | – | –
22 | CCC[C@@H]1[C@@H](Sc2ccc(OC)cc2)[C@@H](C(=O)O)[C@H](c2ccc(Cl)c(Cl)c2)N1S(=O)(=O)c1ccc(C)cc1 | > 5.60 | > 5.70 | – | – | Activity (Rattus norvegicus [5]): 1.1%; Activity (Rattus norvegicus [6]): 10.9%
23 | CC(C)(C)OC(=O)CCS[C@H]1[C@@H](C(=O)O)[C@H](c2ccc(Cl)cc2)N(S(=O)(=O)c2ccc(Cl)cc2)[C@@H]1CC1CCCC1 | 5.05 | – | 5.51 | < 4.00 | Activity (Rattus norvegicus [5]): 9.8%; Activity (Rattus norvegicus [6]): 22.5%
24 | COC(=O)[C@H](CC(C)C)NC(=O)c1ccc(NCc2cnc[nH]2)cc1-c1ccccc1C | 6.30 | 6.22 | – | – | –
25 | CC(C)C[C@H](NC(=O)C1=CC[C@@H](c2cccc(Cl)c2)N(S(=O)(=O)c2ccc(Br)cc2)[C@H]1c1cccc(Br)c1)C(N)=O | < 4.30 | – | – | – | GI50 (Jurkat): 2.22 to 6.38 µM; GI50 (K562): 4.37 to 12.9 µM
